ChEMBL document CHEMBL2401728, “An unexpected Dimroth rearrangement leading to annelated thieno[3,2-d][1,2,3]triazolo[1,5-a]pyrimidines with potent antitumor activity” (Eur J Med Chem, 2013)

How the values were obtained:
Assay type in all cases: functional
SF-268 = experiment: Cytotoxicity against human SF268 cells assessed as cellular growth at 0.1 uM after 48 hrs by SRB assay relative to control
BT-549 [1] = experiment: Cytotoxicity against human BT549 cells assessed as cellular growth at 0.01 uM after 48 hrs by SRB assay relative to control
BT-549 [2] = experiment: Cytotoxicity against human BT549 cells after 48 hrs by SRB assay; conditions: BT-549, 48 h
OVCAR-4 = experiment: Cytotoxicity against human OVCAR4 cells assessed as cellular growth at 0.01 uM after 48 hrs by SRB assay relative to control
UACC-257 = experiment: Cytotoxicity against human UACC257 cells assessed as cellular growth at 1 uM after 48 hrs by SRB assay relative to control
NCI-H23 = experiment: Cytotoxicity against human NCI-H23 cells assessed as cellular growth at 0.01 uM after 48 hrs by SRB assay relative to control
CCRF-CEM = experiment: Cytotoxicity against human CCRF-CEM cells assessed as cellular growth at 100 uM after 48 hrs by SRB assay relative to control
Hs-578T = experiment: Cytotoxicity against human Hs578T cells assessed as cellular growth at 1 uM after 48 hrs by SRB assay relative to control
OVCAR-5 [3] = experiment: Cytotoxicity against human OVCAR5 cells assessed as cellular growth at 0.01 uM after 48 hrs by SRB assay relative to control
NCI-H460 [4] = experiment: Cytotoxicity against human NCI-H460 cells assessed as cellular growth at 100 uM after 48 hrs by SRB assay relative to control
DU-145 [5] = experiment: Cytotoxicity against human DU145 cells assessed as cellular growth at 0.1 uM after 48 hrs by SRB assay relative to control
786-0 = experiment: Cytotoxicity against human 786-0 cells after 48 hrs by SRB assay; conditions: 786-0, 48 h
OVCAR-5 [6] = experiment: Cytotoxicity against human OVCAR5 cells assessed as cellular growth at 0.1 uM after 48 hrs by SRB assay relative to control
MCF7 [7] = experiment: Cytotoxicity against human MCF7 cells assessed as cellular growth at 100 uM after 48 hrs by SRB assay relative to control
NCI-H460 [8] = experiment: Cytotoxicity against human NCI-H460 cells assessed as cellular growth at 0.01 uM after 48 hrs by SRB assay relative to control
COLO 205 = experiment: Cytotoxicity against human COLO205 cells assessed as cellular growth at 0.1 uM after 48 hrs by SRB assay relative to control
HCT-116 [9] = experiment: Cytotoxicity against human HCT116 cells assessed as cellular growth at 0.1 uM after 48 hrs by SRB assay relative to control
MDA-MB-468 [10] = experiment: Cytotoxicity against human MDA-MB-468 cells after 48 hrs by SRB assay; conditions: MDA-MB-468, 48 h
KM12 [11] = experiment: Cytotoxicity against human KM12 cells assessed as cellular growth at 1 uM after 48 hrs by SRB assay relative to control
KM12 [12] = experiment: Cytotoxicity against human KM12 cells after 48 hrs by SRB assay; conditions: KM12, 48 h
IGROV-1 = experiment: Cytotoxicity against human IGROV1 cells assessed as cellular growth at 0.01 uM after 48 hrs by SRB assay relative to control
MDA-MB-435 = experiment: Cytotoxicity against human MDA-MB-435 cells after 48 hrs by SRB assay; conditions: MDA-MB-435, 48 h
HCT-116 [13] = experiment: Cytotoxicity against human HCT116 cells assessed as cellular growth at 0.01 uM after 48 hrs by SRB assay relative to control
OVCAR-8 = experiment: Cytotoxicity against human OVCAR8 cells assessed as cellular growth at 0.01 uM after 48 hrs by SRB assay relative to control
A498 = experiment: Cytotoxicity against human A498 cells assessed as cellular growth at 100 uM after 48 hrs by SRB assay relative to control
SN12C = experiment: Cytotoxicity against human SN12C cells assessed as cellular growth at 1 uM after 48 hrs by SRB assay relative to control
UO-31 [14] = experiment: Cytotoxicity against human UO31 cells assessed as cellular growth at 0.01 uM after 48 hrs by SRB assay relative to control
DU-145 [15] = experiment: Cytotoxicity against human DU145 cells assessed as cellular growth at 100 uM after 48 hrs by SRB assay relative to control
MCF7 [16] = experiment: Cytotoxicity against human MCF7 cells assessed as cellular growth at 1 uM after 48 hrs by SRB assay relative to control
HL-60(TB) = experiment: Cytotoxicity against human HL-60(TB) cells assessed as cellular growth at 100 uM after 48 hrs by SRB assay relative to control
TK-10 = experiment: Cytotoxicity against human TK10 cells assessed as cellular growth at 0.01 uM after 48 hrs by SRB assay relative to control
NCI-H460 [17] = experiment: Cytotoxicity against human NCI-H460 cells assessed as cellular growth at 0.1 uM after 48 hrs by SRB assay relative to control
SK-OV-3 = experiment: Cytotoxicity against human SKOV3 cells assessed as cellular growth at 100 uM after 48 hrs by SRB assay relative to control
SNB-75 = experiment: Cytotoxicity against human SNB75 cells assessed as cellular growth at 1 uM after 48 hrs by SRB assay relative to control
MDA-MB-468 [18] = experiment: Cytotoxicity against human MDA-MB-468 cells assessed as cellular growth at 0.1 uM after 48 hrs by SRB assay relative to control
A549 = experiment: Cytotoxicity against human A549 cells after 48 hrs by SRB assay; conditions: A549, 48 h
UO-31 [19] = experiment: Cytotoxicity against human UO31 cells assessed as cellular growth at 0.1 uM after 48 hrs by SRB assay relative to control
[20] = read-out: LC50 (the source's name)
[21] = read-out: pLC50 (the source's name) (converted)

CN1CCN(CCCn2c3c(sc4ncccc43)c(=O)n3nnc(-c4ccccc4)c23)CC1
Activity (SF-268): 89% | Activity (BT-549 [1]): 99% | GI50 (BT-549 [2]; read-out: GI50): 14.7 µM | LC50 (concentration killing 50% of cells) (BT-549 [2]; read-out: LC50): 63.9 µM | TGI (BT-549 [2]; read-out: TGI): 30.7 µM | GI50 (BT-549 [2]; read-out: pGI50 (converted)): 14.8 µM | LC50 (concentration killing 50% of cells) (BT-549 [2]; read-out: pLC50 (converted)): 64.6 µM | TGI (BT-549 [2]; read-out: pTGI (converted)): 30.9 µM | Activity (OVCAR-4): 100% | Activity (UACC-257): 97% | Activity (NCI-H23): 100% | Activity (CCRF-CEM): -49% | Activity (Hs-578T): 96% | Activity (OVCAR-5 [3]): 105% | Activity (NCI-H460 [4]): -72% | Activity (DU-145 [5]): 98% | GI50 (786-0; read-out: GI50): 1.87 µM | CC50 (786-0; [20]): 6.56 µM | TGI (786-0; read-out: TGI): 3.5 µM | GI50 (786-0; read-out: pGI50 (converted)): 1.86 µM | CC50 (786-0; [21]): 6.61 µM | TGI (786-0; read-out: pTGI (converted)): 3.47 µM | Activity (OVCAR-5 [6]): 102% | Activity (MCF7 [7]): -79% | Activity (NCI-H460 [8]): 102% | Activity (COLO 205): 89% | Activity (HCT-116 [9]): 96% | GI50 (MDA-MB-468 [10]; read-out: GI50): 1.82 µM | CC50 (MDA-MB-468 [10]; [20]): 5.96 µM | TGI (MDA-MB-468 [10]; read-out: TGI): 3.29 µM | GI50 (MDA-MB-468 [10]; read-out: pGI50 (converted)): 1.82 µM | CC50 (MDA-MB-468 [10]; [21]): 6.03 µM | TGI (MDA-MB-468 [10]; read-out: pTGI (converted)): 3.31 µM | Activity (KM12 [11]): 91% | GI50 (KM12 [12]; read-out: GI50): 1.73 µM | CC50 (KM12 [12]; [20]): 6.71 µM | TGI (KM12 [12]; read-out: TGI): 3.41 µM | GI50 (KM12 [12]; read-out: pGI50 (converted)): 1.74 µM | CC50 (KM12 [12]; [21]): 6.76 µM | TGI (KM12 [12]; read-out: pTGI (converted)): 3.39 µM | Activity (IGROV-1): 102% | GI50 (MDA-MB-435; read-out: GI50): 1.87 µM | CC50 (MDA-MB-435; [20]): 6.68 µM | TGI (MDA-MB-435; read-out: TGI): 3.54 µM | GI50 (MDA-MB-435; read-out: pGI50 (converted)): 1.86 µM | CC50 (MDA-MB-435; [21]): 6.76 µM | TGI (MDA-MB-435; read-out: pTGI (converted)): 3.55 µM | Activity (HCT-116 [13]): 97% | Activity (OVCAR-8): 97% | Activity (A498): -92% | Activity (SN12C): 87% | Activity (UO-31 [14]): 66% | Activity (DU-145 [15]): -88% | Activity (MCF7 [16]): 82% | Activity (HL-60(TB)): -62% | Activity (TK-10): 105% | Activity (NCI-H460 [17]): 100% | Activity (SK-OV-3): -95% | Activity (SNB-75): 66% | Activity (MDA-MB-468 [18]): 95% | GI50 (A549; read-out: GI50): 1.79 µM | TGI (A549; read-out: TGI): 3.4 µM | GI50 (A549; read-out: pGI50 (converted)): 1.78 µM | TGI (A549; read-out: pTGI (converted)): 3.39 µM | Activity (UO-31 [19]): 53%

O=C(CCCn1c2c(sc3ccccc32)c(=O)n2nnc(-c3ccccc3)c12)NCCc1c[nH]cn1
Activity (SF-268): 93% | Activity (BT-549 [1]): 100% | GI50 (BT-549 [2]; read-out: GI50): 3.32 µM | LC50 (concentration killing 50% of cells) (BT-549 [2]; read-out: LC50): 51.5 µM | TGI (BT-549 [2]; read-out: TGI): 11.4 µM | GI50 (BT-549 [2]; read-out: pGI50 (converted)): 3.31 µM | LC50 (concentration killing 50% of cells) (BT-549 [2]; read-out: pLC50 (converted)): 51.3 µM | TGI (BT-549 [2]; read-out: pTGI (converted)): 11.5 µM | Activity (OVCAR-4): 110% | Activity (UACC-257): 109% | Activity (NCI-H23): 92% | Activity (CCRF-CEM): -100% | Activity (Hs-578T): 70% | Activity (OVCAR-5 [3]): 94% | Activity (NCI-H460 [4]): -15% | Activity (DU-145 [5]): 87% | GI50 (786-0; read-out: GI50): 1.05 µM | CC50 (786-0; [20]): 5.34 µM | TGI (786-0; read-out: TGI): 2.37 µM | GI50 (786-0; read-out: pGI50 (converted)): 1.05 µM | CC50 (786-0; [21]): 5.37 µM | TGI (786-0; read-out: pTGI (converted)): 2.34 µM | Activity (OVCAR-5 [6]): 36% | Activity (MCF7 [7]): -73% | Activity (NCI-H460 [8]): 111% | Activity (COLO 205): 60% | Activity (HCT-116 [9]): 4% | GI50 (MDA-MB-468 [10]; read-out: GI50): 0.339 µM | CC50 (MDA-MB-468 [10]; [20]): 3.77 µM | TGI (MDA-MB-468 [10]; read-out: TGI): 1.21 µM | GI50 (MDA-MB-468 [10]; read-out: pGI50 (converted)): 0.339 µM | CC50 (MDA-MB-468 [10]; [21]): 3.8 µM | TGI (MDA-MB-468 [10]; read-out: pTGI (converted)): 1.2 µM | Activity (KM12 [11]): 39% | GI50 (KM12 [12]; read-out: GI50): 0.336 µM | CC50 (KM12 [12]; [20]): 4.88 µM | TGI (KM12 [12]; read-out: TGI): 2.01 µM | GI50 (KM12 [12]; read-out: pGI50 (converted)): 0.339 µM | CC50 (KM12 [12]; [21]): 4.9 µM | TGI (KM12 [12]; read-out: pTGI (converted)): 2 µM | Activity (IGROV-1): 101% | GI50 (MDA-MB-435; read-out: GI50): 0.345 µM | CC50 (MDA-MB-435; [20]): 4.7 µM | TGI (MDA-MB-435; read-out: TGI): 1.87 µM | GI50 (MDA-MB-435; read-out: pGI50 (converted)): 0.347 µM | CC50 (MDA-MB-435; [21]): 4.68 µM | TGI (MDA-MB-435; read-out: pTGI (converted)): 1.86 µM | Activity (HCT-116 [13]): 16% | Activity (OVCAR-8): 42% | Activity (A498): -97% | Activity (SN12C): 36% | Activity (UO-31 [14]): 104% | Activity (DU-145 [15]): -100% | Activity (MCF7 [16]): 58% | Activity (HL-60(TB)): -89% | Activity (TK-10): 96% | Activity (NCI-H460 [17]): 114% | Activity (SK-OV-3): -100% | Activity (SNB-75): 107% | Activity (MDA-MB-468 [18]): 97% | GI50 (A549; read-out: GI50): 1.29 µM | TGI (A549; read-out: TGI): 3.21 µM | GI50 (A549; read-out: pGI50 (converted)): 1.29 µM | TGI (A549; read-out: pTGI (converted)): 3.24 µM | Activity (UO-31 [19]): 106%
